Some test systems named below: LXFL 529 NSCLC; DU-145 prostate; M19-MEL melanoma; KM20L2 colon; HOP-18 NSCLC; BT-549 breast; DMS 114 small cell lung; DLD-1 colon; PC-3 prostate; DMS 273 small cell lung.
Common to all, as to experiment: inhibition of tumour cell growth, NCI panel, 48 h

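Protocol summary: plate cells (96-well), add compound at 5 concentrations, incubate 48 h, interpolate endpoints linearly. Abbreviation: GI50, concentration required for 50% inhibition of growth. The concentration for full growth arrest is given as TGI.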 A value given as a limit tells only on which side of the number the result lay.

As for `CCOP(=O)(CCP(=O)(OCC)OCC)OCC.C[CH2][Sn]([Cl])([Cl])[CH2]C`, the GI50 with LXFL 529 NSCLC is 10.7 µM; with DU-145 prostate it was more than 100 µM; in the assay with M19-MEL melanoma it was 24.8 µM; with KM20L2 colon it was more than 68.2 µM; in the assay with HOP-18 NSCLC, 20.7 µM; in the assay with BT-549 breast, 17.8 µM. Moreover, the GI50 was 16.7 µM in the assay on DMS 114 small cell lung, 27.7 µM in the assay with DLD-1 colon, more than 100 µM in the assay with PC-3 prostate and more than 75.1 µM in the assay with DMS 273 small cell lung. Moreover, the TGI in the assay with LXFL 529 NSCLC was 22.8 µM; with DU-145 prostate, more than 100 µM; in the assay on M19-MEL melanoma it was more than 60.4 µM; with KM20L2 colon, more than 100 µM; in the assay on HOP-18 NSCLC, 35 µM; with BT-549 breast, 33.8 µM. In addition, the TGI in the assay on DMS 114 small cell lung was 34.5 µM; with DLD-1 colon, more than 79 µM; in the assay on PC-3 prostate, more than 100 µM; with DMS 273 small cell lung it was more than 100 µM.
`COc1c(OC(C)=O)cc2c(OC(C)=O)c1CC(C)CC(OC)C(O)C(C)/C=C(\C)C(OC(N)=O)C(OC)/C=C\C=C(/C)C(=O)N2` (centres undefined): the TGI with LXFL 529 NSCLC, with M19-MEL melanoma, in the assay with KM20L2 colon, in the assay with HOP-18 NSCLC, in the assay with DMS 114 small cell lung and in the assay on DLD-1 colon was more than 100 µM in each case. The same compound displayed a TGI in the assay with DMS 273 small cell lung of more than 100 µM.
For the compound `CCSC1(SCC)CCN(C=NC(C)(C)C)C1`, the TGI in the assay on LXFL 529 NSCLC, in the assay on M19-MEL melanoma, with KM20L2 colon, in the assay with HOP-18 NSCLC, in the assay with DMS 114 small cell lung and with DLD-1 colon was more than 100 µM each time. Moreover, in the assay with DMS 273 small cell lung, the TGI was more than 100 µM.
Consider `OC(c1ccccc1)(c1ccccc1)c1ccccn1`, for which the TGI in the assay with LXFL 529 NSCLC, in the assay on M19-MEL melanoma, in the assay with KM20L2 colon, in the assay with HOP-18 NSCLC, in the assay with DMS 114 small cell lung and in the assay with DLD-1 colon was more than 100 µM in each case. Further, the TGI in the assay on DMS 273 small cell lung was more than 100 µM.
As for `CC(=O)CC(=O)CCCC(=O)Nc1ccc(Cl)cc1C`, the TGI in the assay on LXFL 529 NSCLC, in the assay with M19-MEL melanoma, in the assay on KM20L2 colon, in the assay on HOP-18 NSCLC, with DMS 114 small cell lung and in the assay with DLD-1 colon was more than 100 µM each time. In addition, the TGI in the assay with DMS 273 small cell lung was more than 100 µM.
With `CCC(=O)C1=C(OC(C)=O)C2Cc3c(n(C)c4ccccc34)C(C1)N2C` (centres undefined), the TGI in the assay with LXFL 529 NSCLC was more than 100 µM; with M19-MEL melanoma, more than 100 µM; with KM20L2 colon it was more than 100 µM; in the assay on HOP-18 NSCLC it was more than 100 µM; in the assay with DMS 114 small cell lung, 58.7 µM; in the assay on DLD-1 colon, 74.5 µM. Besides, the TGI in the assay on DMS 273 small cell lung worked out at 41.7 µM.
As for `O=[N+]([O-])c1cccc(C2SCc3nc4ccccc4n32)c1` (centres undefined), the TGI in the assay with LXFL 529 NSCLC, with M19-MEL melanoma, in the assay on KM20L2 colon, with HOP-18 NSCLC, in the assay on DMS 114 small cell lung and in the assay with DLD-1 colon was more than 100 µM in each case. For the same compound, the TGI in the assay with DMS 273 small cell lung is more than 100 µM.
Regarding `C/C(CN1C(=O)c2ccccc2C1=O)=N\NS(=O)(=O)c1ccccc1`, the TGI in the assay on LXFL 529 NSCLC, with M19-MEL melanoma, in the assay with KM20L2 colon, in the assay on HOP-18 NSCLC, with DMS 114 small cell lung and with DLD-1 colon was more than 100 µM in each case. Also, in the assay on DMS 273 small cell lung, the TGI was more than 100 µM.

Values taken from PubChem BioAssay (NCI).
